Experimental data from patent US20140242606A1, “PROBE FOR iFRET AND USE THEREOF” (KOREA RESEARCH INSTITUTE OF BIOSCIENCE AND BIOTECHNOLOGY, priority 2011, published 2014).

How the values were obtained:
[1] = Fluorescence characterization of fluorescent molecules (excitation and emission wavelengths); assay type: physicochemical; conditions: fluorescent molecule, Table 1
Source text: 1-Naphthylethylenediamine of Chemical Formula I can be effectively detected by LED (light-emitting diode), and used as a fluorescent probe. In addition, because this compound has an excitation wavelength of 340 nm to 380 nm and an emission wavelength of 400 nm to 600 nm, it has longer emission wavelength than the known fluorophores, and therefore, it can be detected as a fluorescent molecule distinct from the cellular autofluorescence.
The excitation and emission wavelengths of the fluorescent molecules of the present invention, that is, the compounds represented by Chemical Formulae I to XXII are described in Table 1, and graphs showing the fluorescent characteristics thereof are given in FIGS. 3 to 15.

active caspase = biological target: T1, active caspase (Homo sapiens, UniProt P42574); test: iFRET detection of caspase-3 with probe XXIII; assay type: binding; conditions: mixture of probe and active caspase, excitation at 280 nm, versus caspase or probe alone
T1 sequence (P42574 29-175 limits assumed): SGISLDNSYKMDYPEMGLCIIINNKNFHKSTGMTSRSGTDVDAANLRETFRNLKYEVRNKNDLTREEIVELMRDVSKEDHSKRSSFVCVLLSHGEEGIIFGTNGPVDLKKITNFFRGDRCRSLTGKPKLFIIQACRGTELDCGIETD
T1 sequence (P42574 176-277 limits assumed): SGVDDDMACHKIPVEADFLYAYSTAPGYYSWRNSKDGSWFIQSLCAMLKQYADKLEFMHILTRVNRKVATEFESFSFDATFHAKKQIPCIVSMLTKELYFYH
Source text: <Detection of Caspase-3 Protein and Test of its Activity Using iFRET Probe of Chemical Formula XXIII>
Chemical Formula XXIII and caspase protein were used to detect iFRET signals.

inactive caspase = test: iFRET control with inactive caspase; assay type: binding; conditions: inactive caspase and probe excited at 280 nm
[2] = Fluorescence of the iFRET probe alone; assay type: physicochemical; conditions: for fluorescence emission wavelength of probe alone: excitation / UV irradiation at 280 nm
Source text: After excitation at 260, 280, 340, and 360 nm, the emitted fluorescence spectra were examined. […]
(§1) As in FIG. 23 showing the result of using the compound of Chemical Formula XXV as a probe for iFRET, the probe itself emitted low fluorescence (blue line) at 430 nm by UV irradiation at 280 nm; the protein (streptavidin) emitted fluorescence (green line) at 340 nm by UV irradiation at 280 nm.
As in FIG. 24 showing the result of using the compound of Chemical Formula XXVI as a fluorescent probe, the probe itself emitted low fluorescence (blue line) at 460 nm by UV irradiation at 280 nm; the protein (streptavidin) emitted fluorescence (green line) at 340 nm by UV irradiation at 280. […] Further, it was confirmed that the fluorescence increasing rate at the above emission wavelength was 600% or more, indicating production of effective iFRET signals. […]

[3] = value used for calculation; cited from earlier work
streptavidin [4] = biological target: T2, streptavidin (Streptomyces avidinii, UniProt P22629); test: iFRET detection of streptavidin with biotin-conjugated probes; assay type: binding; conditions: UV irradiation at 280 nm
T2 sequence (P22629 25-183): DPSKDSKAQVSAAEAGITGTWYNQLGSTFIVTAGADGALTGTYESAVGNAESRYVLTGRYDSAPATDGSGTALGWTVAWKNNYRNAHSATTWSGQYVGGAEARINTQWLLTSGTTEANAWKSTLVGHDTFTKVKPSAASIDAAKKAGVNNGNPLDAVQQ
Source text: The results of detecting streptavidin using Compounds of Chemical Formulae XXV to XXVIII as probes for iFRET are shown in FIGS. 23 to 26.
as §1
As in FIG. 24 showing the result of using the compound of Chemical Formula XXVI as a fluorescent probe, the probe itself emitted low fluorescence (blue line) at 460 nm by UV irradiation at 280 nm; the protein (streptavidin) emitted fluorescence (green line) at 340 nm by UV irradiation at 280. […] Further, it was confirmed that the fluorescence increasing rate at the above emission wavelength was 600% or more, indicating production of effective iFRET signals.
Because the compound of Chemical Formula XXVII emitted fluorescence at the longer wavelength than the known iFRET probe, signal-to-noise ratio is […] during real-time cell imaging, thereby providing more clear images.
In order to examine target specificity of the probe having Chemical Formula XXVIII, the probe was exposed to BSA to examine whether iFRET signals were produced by binding of the probe to BSA. […] Therefore, it was confirmed that the biotin-conjugated iFRET fluorescent probe of the present invention selectively binds to streptavidin to produce iFRET signals.

[5] = Quantum yield measurement; assay type: physicochemical; conditions: 0.1 M pH 10.0 phosphate buffer, standard 4-methyl-umbelliferone
Procedure: (§2) The quantum yield of each compound was measured in 0.1 M pH 10.0 phosphate buffer. 4-methyl-umbelliferone (ΦF 0.63) was used as a standard material, tryptophan (ΦF=0.12) was used as an FRET donor to calculate the quantum yield. FRET efficiency was calculated based on the results measured in PBS buffer at pH 7.4, and fluorescence was measured using an LS55 fluorescence spectrometer manufactured by Perkin Elmer.

streptavidin [6] = biological target: T2, streptavidin; test: FRET efficiency and Forster distance of biotin-conjugated probes; assay type: binding; conditions: between iFRET probe and streptavidin
Procedure: as §2

SMILES	Emission wavelength (nm) [1]	Excitation wavelength (nm) [1]	further results
COC(=O)CC1C(C(=O)OC)=CN(C)C=C1C(=O)OC [Chemical Formula VIII, dimethyl 4-(2-methoxy-2-oxoethyl)-1-methyl-1,4-dihydropyridine-3,5-dicarboxylate]	450 nm	370 nm	–
CC(C)(C)OC(=O)Nc1ccc2cc(/C=C/C(=O)O)ccc2c1 [Chemical Formula XV]	450 nm	330 nm	–
CN(C)c1cccc2c(S(=O)(=O)Cl)cccc12 [Chemical Formula XIX]	520 nm	340 nm	–
Cc1cc(=O)oc2cc(O)ccc12 [Chemical Formula XIV]	450 nm	370 nm	–
CC(C)[C@H](NC(=O)[C@H](CCC(=O)O)NC(=O)[C@H](CC(=O)O)NC(=O)CCC(=O)NCCNc1cccc2ccccc12)C(=O)N[C@H](C=O)CC(=O)O [Chemical Formula XXIII]	–	–	increase of fluorescence at 445 nm (active caspase): approximately 300%; iFRET signals (inactive caspase): no iFRET signals were observed; fluorescence emission wavelength of probe alone [2]: approximately 445 nm
CCOC(=O)Cc1cc(=O)oc2cc(N(C)C)ccc12 [Chemical Formula XX, ethyl 2-(7-(dimethylamino)-2-oxo-2H-chromen-4-yl)acetate]	490 nm	370 nm	–
COC(=O)/C=C/c1cc2ccc(O)cc2oc1=O [Chemical Formula X, methyl 3-(7-hydroxy-2-oxo-2H-chromen-3-yl)acrylate]	510 nm	430 nm	–
Cc1ccc2cc(C(=O)O)c(=O)oc2c1 [Chemical Formula XIII]	450 nm	400 nm	–
NCCNc1cccc2ccccc12 [Chemical Formula I, 1-naphthylethylenediamine]	430 nm	340 nm	–
COC(=O)C1=C(C)N(Cc2ccccc2)C=CC1(C)C [Chemical Formula V, methyl 1-benzyl-2,4,4-trimethyl-1,4-dihydropyridine-3-carboxylate]	430 nm	330 nm	–
CC(C)(C)OC(=O)NCCNC(=O)/C=C/c1cc2ccc(O)cc2oc1=O [Chemical Formula XI, tert-butyl 2-(3-(7-hydroxy-2-oxo-2H-chromen-3-yl)acrylamido)ethylcarbamate]	480 nm	380-420 nm	–
CN(C)c1ccc2c(CC(=O)O)cc(=O)oc2c1 [Chemical Formula XXI, 2-(7-(dimethylamino)-2-oxo-2H-chromen-4-yl)acetic acid]	480 nm	370 nm	–
COC(=O)C1=CN(C)C=C(C(=O)O)C1C=C(C)C (centres unmarked) [Chemical Formula VII, 5-(methoxycarbonyl)-1-methyl-4-(2-methyl-1-propenyl)-1,4-dihydropyridine-3-carboxylic acid]	450 nm	380 nm	–
CCN(CC)c1ccc2cc(C(=O)n3ccnc3)c(=O)oc2c1 [Chemical Formula XVIII]	470 nm	400 nm	–
Cc1cc(=O)oc2cc(O)ccc12 [4-methyl-umbelliferone]	–	–	quantum yield ΦF of standard material / FRET donor [3]: 0.63
COC(=O)C1=CN(C)C=CC1(C)C [Chemical Formula II, methyl 1,4,4-trimethyl-1,4-dihydropyridine-3-carboxylate]	450 nm	360 nm	–
COc1ccc2cc(C(=O)O)c(=O)oc2c1 [Chemical Formula XVI]	390 nm	330 nm	–
O=C(/C=C/c1cc2ccc(O)cc2oc1=O)NCCNC(=O)CCCC[C@@H]1SC[C@@H]2NC(=O)N[C@@H]21 [Chemical Formula XXVII, N-((E)-7-hydroxycoumarin-3-acryl)-N′-(biotinyl)ethylenediamide]	–	–	fluorescence / iFRET signal of mixture of probe and streptavidin (streptavidin [4]): increased fluorescence at 480 nm; Quantum yield (ΦF) [5]: 0.105; R0 (Fōrster distance) (streptavidin [6]): 2.161 nm
COC(=O)C1=CN(C)C=C(C(=O)OC)C1C=C(C)C [Chemical Formula VI, dimethyl 1-methyl-4-(2-methyl-1-propenyl)-1,4-dihydropyridine-3,5-dicarboxylate]	450 nm	390 nm	–
O=C(CCCC[C@@H]1SC[C@@H]2NC(=O)N[C@@H]21)NCCNc1cccc2ccccc12 [Chemical Formula XXV, N-biotinyl N′-(1-naphthyl)ethylenediamine]	–	–	fluorescence / iFRET signal of mixture of probe and streptavidin (streptavidin [4]): increased fluorescence at 430 nm; Quantum yield (ΦF) [5]: 0.7; R0 (Fōrster distance) (streptavidin [6]): 1.837 nm; fluorescence emission wavelength of probe alone [2]: 430 nm
CCOC(=O)Cc1cc(=O)oc2cc(N(CC)CC)ccc12 [Chemical Formula XXII, ethyl 2-(7-(diethylamino)-2-oxo-2H-chromen-4-yl)acetate]	450 nm	370 nm	–
COC(=O)CCC(NC(=O)C(CC(=O)OC)NC(=O)CCC(=O)NCCNc1cccc2ccccc12)C(=O)N[C@@H](C(=O)NC(CC(=O)OC)C(=O)C(F)(F)F)C(C)C (stereo partly drawn) [Chemical Formula XXXII, N-(1-naphthyl)ethyleneamide-4-butaneamide-Asp(CO2Me)-L-Glu(CO2Me)-L-Val-Asp(CO2Me)-(ketone)-CF3]	–	–	fluorescence emission wavelength of probe [2]: 430 nm
O=C(CCCCC1SCC2NC(=O)NC21)NCCNC(=O)Cc1cc(=O)oc2cc(O)ccc12 (centres unmarked) [Chemical Formula XXVI, N-(7-hydroxycoumarin-4-acetyl)-N′-(biotinyl)ethylenediamine]	–	–	fluorescence / iFRET signal of mixture of probe and streptavidin (streptavidin [4]): increased fluorescence at 460 nm; fluorescence increasing rate at emission wavelength 460 nm (streptavidin [4]; mixture of probe and streptavidin): ≥ 600%; Quantum yield (ΦF) [5]: 0.7; R0 (Fōrster distance) (streptavidin [6]): 1.675 nm; fluorescence emission wavelength of probe alone [2]: 460 nm
N[C@@H](Cc1c[nH]c2ccccc12)C(=O)O [tryptophan]	–	–	quantum yield ΦF of standard material / FRET donor [3]: 0.12
COC(=O)C1=CN(C)C=C(C(=O)O)C1 [Chemical Formula IV, 5-(methoxycarbonyl)-1-methyl-1,4-dihydropyridine-3-carboxylic acid]	480 nm	390-400 nm	–
O=C(O)/C=C/c1cc2ccc(O)cc2oc1=O [Chemical Formula IX, 3-(7-hydroxy-2-oxo-2H-chromen-3-yl)acrylic acid]	480 nm	370-380 nm	–
